Key:
Test in all cases: relative viability (nuclei count vs DMSO), 5 days (fraction); higher = more cells survive
BI-D1870 + Linsitinib = compound: CC(C)CCN1c2nc(Nc3cc(F)c(O)c(F)c3)ncc2N(C)C(=O)C1C [BI-D1870] + C[C@]1(O)C[C@@H](c2nc(-c3ccc4ccc(-c5ccccc5)nc4c3)c3c(N)nccn32)C1 [Linsitinib] (partner 1 µM)
How it was run: (§1)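 Values are medians from duplicate plates. Each reflects relative viability, defined as the nuclei count of treated wells over that of vehicle wells. Lung cancer cell lines in 1536-well plates were pin-tool dosed one day after seeding with one drug alone or with a fixed anchor-drug dose plus five library-drug doses (not always all listed) in √10 steps, then fixed, stained and imaged at 4× after 5 days.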

Zebularine + Crizotinib = compound: O=c1ncccn1[C@@H]1O[C@H](CO)[C@@H](O)[C@H]1O [Zebularine] + C[C@@H](Oc1cc(-c2cnn(C3CCNCC3)c2)cnc1N)c1c(Cl)ccc(F)c1Cl [Crizotinib] (partner 1 µM)
How it was run: as §1

Zebularine + Pemetrexed = compound: O=c1ncccn1[C@@H]1O[C@H](CO)[C@@H](O)[C@H]1O [Zebularine] + Nc1nc2[nH]cc(CCc3ccc(C(=O)N[C@@H](CCC(=O)O)C(=O)O)cc3)c2c(=O)[nH]1 [Pemetrexed] (partner 0.2 µM)
How it was run: as §1

Zebularine + Olaparib = compound: O=c1ncccn1[C@@H]1O[C@H](CO)[C@@H](O)[C@H]1O [Zebularine] + O=C(c1cc(Cc2n[nH]c(=O)c3ccccc23)ccc1F)N1CCN(C(=O)C2CC2)CC1 [Olaparib] (partner 8 µM)
How it was run: as §1

Cell Line	relative viability (BI-D1870 + Linsitinib; first compound 0.04 µM)	relative viability (BI-D1870 + Linsitinib; first compound 0.1265 µM)	relative viability (BI-D1870 + Linsitinib; first compound 0.4 µM)	relative viability (BI-D1870 + Linsitinib; first compound 1.265 µM)	relative viability (BI-D1870 + Linsitinib; first compound 4 µM)	relative viability (Zebularine + Crizotinib; first compound 1 µM)	relative viability (Zebularine + Crizotinib; first compound 3.162 µM)	relative viability (Zebularine + Crizotinib; first compound 10 µM)	relative viability (Zebularine + Crizotinib; first compound 31.62 µM)	relative viability (Zebularine + Crizotinib; first compound 100 µM)	relative viability (Zebularine + Pemetrexed; first compound 1 µM)	relative viability (Zebularine + Pemetrexed; first compound 3.162 µM)	relative viability (Zebularine + Pemetrexed; first compound 10 µM)	relative viability (Zebularine + Pemetrexed; first compound 31.62 µM)	relative viability (Zebularine + Pemetrexed; first compound 100 µM)	relative viability (Zebularine + Olaparib; first compound 1 µM)	relative viability (Zebularine + Olaparib; first compound 3.162 µM)	relative viability (Zebularine + Olaparib; first compound 10 µM)	relative viability (Zebularine + Olaparib; first compound 31.62 µM)	relative viability (Zebularine + Olaparib; first compound 100 µM)
BEN	0.956	0.859	0.914	1.01	0.961	0.812	0.81	0.433	0.37	0.328	0.943	0.636	0.584	0.562	0.306	0.819	0.623	0.608	0.428	0.506
NCI-H23	0.911	0.385	0.586	0.61	0.685	0.482	0.559		0.456	0.5	0.777	0.706		0.649	0.494	0.318	0.132		0.276	0.258
201T	1.05	1.09	1.06	1.04	1.07	1.08	1.03	0.861	1.11	1.01	0.359	0.343	0.35	0.311	0.271	0.907	0.798	0.574	0.544	0.474
NCI-H460	0.974	0.629	0.655	0.434	0.0477	1.06	0.987	0.273	0.375	0.1	0.0616	0.0545	0.08	0.076	0.0682	0.433	0.405	0.22	0.162	0.133

From the supplement of paper PMC10307832
